From ChEMBL document CHEMBL5137080, “Discovery of Novel 7-Hydroxy-5-oxo-4,5-dihydrothieno[3,2-b]pyridine-6-carboxamide Derivatives with Potent and Selective Antifungal Activity against Cryptococcus Species” (J Med Chem, 2022)
In brackets after ≈: the same amount, converted by molar mass.

Key:
[1] = system: Nakaseomyces glabratus; experiment: Antifungal activity against Candida glabrata ATCC1182 assessed as fungal growth inhibition incubated for 48 hrs by broth microdilution method; type: functional
[2] = system: Cryptococcus neoformans; experiment: Antifungal activity against Cryptococcus neoformans clinical isolate HN15 assessed as fungal growth inhibition incubated for 72 hrs by broth microdilution method; type: functional
[3] = system: Pichia kudriavzevii; experiment: Antifungal activity against Candida krusei ATCC2340 assessed as fungal growth inhibition incubated for 48 hrs by broth microdilution method; type: functional
[4] = system: Cryptococcus neoformans; experiment: Antifungal activity against Cryptococcus neoformans clinical isolate 443 assessed as fungal growth inhibition incubated for 72 hrs in presence of Fluconazole by broth microdilution method; type: functional
[5] = system: [Candida] auris; experiment: Antifungal activity against Candida auris CBS 12372 assessed as fungal growth inhibition incubated for 48 hrs by broth microdilution method; type: functional; conditions: Candidozyma auris
[6] = system: Cryptococcus deuterogattii; experiment: Antifungal activity against Cryptococcus gattii WM178 assessed as fungal growth inhibition incubated for 72 hrs by broth microdilution method; type: functional, Cryptococcus gattii species complex
[7] = system: Cryptococcus neoformans; experiment: Antifungal activity against Cryptococcus neoformans clinical isolate 56992 assessed as fungal growth inhibition incubated for 72 hrs by broth microdilution method; type: functional
[8] = system: Cryptococcus neoformans; experiment: Antifungal activity against Cryptococcus neoformans H99 infected in Wax moth larvae assessed as survival rate at 10 mg/kg measured after 9 days by Kaplan-Meier method; type: functional; conditions: H99, 216 h, time 9 day
[9] = system: Cryptococcus deuterogattii; experiment: Antifungal activity against Cryptococcus gattii WM178 infected in Wax moth larvae assessed as survival rate at 10 mg/kg measured after 9 days by Kaplan-Meier method; type: functional, Cryptococcus gattii species complex; conditions: WM178, 216 h, time 9 day
[10] = system: Candida albicans; experiment: Antifungal activity against Candida albicans SC5314 assessed as fungal growth inhibition incubated for 48 hrs by broth microdilution method; type: functional
[11] = Hemolytic activity in rabbit RBC at 16 ug/ml incubated for 1 hr by spectrophotometry; type: toxicity, cell-based, Oryctolagus cuniculus, Erythrocyte; conditions: red blood cells, at 16 µg/mL, read-out: Activity
[12] = system: Cryptococcus neoformans; experiment: Antifungal activity against Cryptococcus neoformans H99 infected in Wax moth larvae assessed as reduction on fungal burden at 10 mg/kg measured after 9 days by 10 fold serial dilution method; type: functional; conditions: time 9 day
[13] = system: Cryptococcus neoformans; experiment: Antifungal activity against Cryptococcus neoformans clinical isolate 443 assessed as fungal growth inhibition incubated for 72 hrs by broth microdilution method; type: functional
[14] = system: Cryptococcus neoformans; experiment: Antifungal activity against Cryptococcus neoformans clinical isolate BJ3 assessed as fungal growth inhibition incubated for 72 hrs in presence of Fluconazole by broth microdilution method; type: functional
[15] = system: Cryptococcus gattii; experiment: Antifungal activity against Cryptococcus gattii WM179 assessed as fungal growth inhibition incubated for 72 hrs by broth microdilution method; type: functional, Cryptococcus gattii species complex
[16] = system: Cryptococcus neoformans; experiment: Antifungal activity against Cryptococcus neoformans clinical isolate 445 assessed as fungal growth inhibition incubated for 72 hrs by broth microdilution method; type: functional
[17] = system: Cryptococcus neoformans; experiment: Antifungal activity against Cryptococcus neoformans H99 assessed as fungal growth inhibition incubated for 72 hrs by broth microdilution method; type: functional
[18] = system: Cryptococcus neoformans; experiment: Antifungal activity against Cryptococcus neoformans clinical isolate HN1 assessed as fungal growth inhibition incubated for 72 hrs by broth microdilution method; type: functional
[19] = system: Cryptococcus gattii species complex; experiment: Synergistic antifungal activity against Cryptococcus gattii clinical isolate SCZ20031 assessed as fractional inhibitory concentration index incubated for 72 hrs in presence of Fluconazole by broth microdilution method; type: functional
[20] = system: Cryptococcus neoformans; experiment: Antifungal activity against Cryptococcus neoformans clinical isolate HN2-40 assessed as fungal growth inhibition incubated for 72 hrs by broth microdilution method; type: functional
[21] = system: Cryptococcus neoformans; experiment: Synergistic antifungal activity against Cryptococcus neoformans clinical isolate HN19 assessed as fractional inhibitory concentration index incubated for 72 hrs in presence of Fluconazole by broth microdilution method; type: functional
[22] = system: Cryptococcus deuterogattii; experiment: Antifungal activity against Cryptococcus gattii WM178 infected in Wax moth larvae assessed as median survival time at 10 mg/kg measured after 9 days by Kaplan-Meier method; type: functional, Cryptococcus gattii species complex; conditions: time 9 day
[23] = system: Cryptococcus gattii species complex; experiment: Antifungal activity against Cryptococcus gattii clinical isolate SCZ20031 assessed as fungal growth inhibition incubated for 72 hrs by broth microdilution method; type: functional
[24] = system: Cryptococcus neoformans; experiment: Antifungal activity against Cryptococcus neoformans clinical isolate HN19 assessed as fungal growth inhibition incubated for 72 hrs by broth microdilution method; type: functional
[25] = system: Candida tropicalis; experiment: Synergistic antifungal activity against Candida tropicalis ATCC20026 assessed as fractional inhibitory concentration index incubated for 48 hrs in presence of Fluconazole by broth microdilution method; type: functional
[26] = system: Aspergillus fumigatus; experiment: Antifungal activity against Aspergillus fumigatus 7544 assessed as fungal growth inhibition incubated for 48 hrs by broth microdilution method; type: functional
[27] = system: Candida tropicalis; experiment: Antifungal activity against Candida tropicalis ATCC20026 assessed as fungal growth inhibition incubated for 48 hrs by broth microdilution method; type: functional
[28] = system: Cryptococcus neoformans; experiment: Antifungal activity against Cryptococcus neoformans clinical isolate HN2 assessed as fungal growth inhibition incubated for 72 hrs by broth microdilution method; type: functional
[29] = system: Cryptococcus gattii species complex; experiment: Antifungal activity against Cryptococcus gattii E566 assessed as fungal growth inhibition incubated for 72 hrs by broth microdilution method; type: functional
[30] = system: Cryptococcus neoformans; experiment: Antifungal activity against Cryptococcus neoformans clinical isolate HN17 assessed as fungal growth inhibition incubated for 72 hrs by broth microdilution method; type: functional
[31] = Cytotoxicity against human Caco-2 cells assessed as cell viability at 256 ug/ml incubated for 24 hrs by CCK-8 assay; type: toxicity, cell-based; conditions: at 256 µg/mL, read-out: Activity
[32] = system: Cryptococcus neoformans; experiment: Antifungal activity against Cryptococcus neoformans clinical isolate 444 assessed as fungal growth inhibition incubated for 72 hrs by broth microdilution method; type: functional
[33] = Cytotoxicity against human HUVEC cells assessed as inhibition on cell growth incubated for 24 hrs by CCK-8 assay; type: toxicity, cell-based
[34] = Cytotoxicity against human HUVEC cells assessed as cell viability at 256 ug/ml incubated for 24 hrs by CCK-8 assay; type: toxicity, cell-based; conditions: at 256 µg/mL, read-out: Activity
[35] = system: Cryptococcus gattii; experiment: Antifungal activity against Cryptococcus gattii WM179 assessed as fungal growth inhibition incubated for 72 hrs in presence of Fluconazole by broth microdilution method; type: functional, Cryptococcus gattii species complex
[36] = system: Cryptococcus neoformans; experiment: Antifungal activity against Cryptococcus neoformans H99 infected in Wax moth larvae assessed as median survival time at 10 mg/kg measured after 9 days by Kaplan-Meier method; type: functional; conditions: time 9 day
[37] = system: Cryptococcus neoformans; experiment: Antifungal activity against Cryptococcus neoformans clinical isolate HN20 assessed as fungal growth inhibition incubated for 72 hrs by broth microdilution method; type: functional
[38] = system: Cryptococcus gattii species complex; experiment: Antifungal activity against Cryptococcus gattii clinical isolate SCZ20024 assessed as fungal growth inhibition incubated for 72 hrs by broth microdilution method; type: functional
[39] = system: Cryptococcus neoformans; experiment: Antifungal activity against Cryptococcus neoformans clinical isolate BJ3 assessed as fungal growth inhibition incubated for 72 hrs by broth microdilution method; type: functional
[40] = system: Cryptococcus neoformans; experiment: Antifungal activity against Cryptococcus neoformans clinical isolate SH68 assessed as fungal growth inhibition incubated for 72 hrs by broth microdilution method; type: functional
[41] = Hemolytic activity in rabbit RBC at 256 ug/ml incubated for 1 hr by spectrophotometry; type: toxicity, cell-based, Oryctolagus cuniculus, Erythrocyte; conditions: red blood cells, at 256 µg/mL, read-out: Activity
[42] = system: Cryptococcus gattii species complex; experiment: Antifungal activity against Cryptococcus gattii clinical isolate SCZ20024 assessed as fungal growth inhibition incubated for 72 hrs in presence of P163-0892 by broth microdilution method; type: functional
[43] = system: Cryptococcus neoformans; experiment: Antifungal activity against Cryptococcus neoformans clinical isolate HN2 assessed as fungal growth inhibition incubated for 72 hrs in presence of P163-0892 by broth microdilution method; type: functional
[44] = system: Cryptococcus neoformans; experiment: Antifungal activity against Cryptococcus neoformans clinical isolate SH68 assessed as fungal growth inhibition incubated for 72 hrs in presence of P163-0892 by broth microdilution method; type: functional

CCCCNC(=O)c1c(O)c2sccc2n(Cc2ccccc2)c1=O
MIC [1]: > 64 µg/mL | MIC [2]: 1 µg/mL (≈ 2.81 µM) | MIC [3]: > 64 µg/mL | MIC [4]: 0.0313 µg/mL | MIC [5]: > 64 µg/mL | MIC [6]: 0.5 µg/mL (≈ 1.4 µM) | MIC [7]: 1 µg/mL (≈ 2.81 µM) | survival at 10 mg/kg [8]: 30% | survival at 10 mg/kg [9]: 35% | MIC [10]: > 64 µg/mL | hemolysis at 1 h, 16 ug/ml [11]: 2.32% | Activity [12]: 5.7 log10CFU/g | MIC [13]: 1 µg/mL (≈ 2.81 µM) | MIC [14]: 0.0313 µg/mL | MIC [15]: 0.5 µg/mL (≈ 1.4 µM) | MIC [16]: 2 µg/mL (≈ 5.61 µM) | MIC [17]: 0.25 µg/mL (≈ 0.701 µM) | MIC [18]: 0.5 µg/mL (≈ 1.4 µM) | fractional inhibitory concentration index (FICI) [19]: 0.25 | MIC [20]: 0.5 µg/mL (≈ 1.4 µM) | fractional inhibitory concentration index (FICI) [21]: 0.281 | MST [22]: 3 days | MIC [23]: 1 µg/mL (≈ 2.81 µM) | MIC [24]: 1 µg/mL (≈ 2.81 µM) | fractional inhibitory concentration index (FICI) [25]: 0.516 | MIC [26]: > 64 µg/mL | MIC [27]: > 64 µg/mL | MIC [28]: 0.5 µg/mL (≈ 1.4 µM) | MIC [29]: 0.5 µg/mL (≈ 1.4 µM) | MIC [30]: 1 µg/mL (≈ 2.81 µM) | viability at 24 h, 256 ug/ml [31]: 104% | MIC [32]: 0.5 µg/mL (≈ 1.4 µM) | IC50 at 24 h [33]: > 64 µg/mL | viability at 24 h, 256 ug/ml [34]: 107% | MIC [35]: 0.0625 µg/mL | MST [36]: 2.5 days | MIC [37]: 0.25 µg/mL (≈ 0.701 µM) | MIC [38]: 1 µg/mL (≈ 2.81 µM) | MIC [39]: 0.5 µg/mL (≈ 1.4 µM) | MIC [40]: 0.5 µg/mL (≈ 1.4 µM) | hemolysis at 1 h, 256 ug/ml [41]: 2.47%

OC(Cn1cncn1)(Cn1cncn1)c1ccc(F)cc1F [FLUCONAZOLE]
MIC [1]: > 64 µg/mL | MIC [2]: 4 µg/mL (≈ 13.1 µM) | MIC [3]: 8 µg/mL (≈ 26.1 µM) | MIC [5]: 1 µg/mL (≈ 3.27 µM) | MIC [6]: 4 µg/mL (≈ 13.1 µM) | MIC [7]: 2 µg/mL (≈ 6.53 µM) | survival at 10 mg/kg [8]: 35% | survival at 10 mg/kg [9]: 40% | MIC [10]: 0.5 µg/mL (≈ 1.63 µM) | hemolysis at 1 h, 16 ug/ml [11]: 2.65% | Activity [12]: 5.3 log10CFU/g | MIC [13]: 8 µg/mL (≈ 26.1 µM) | MIC [15]: 4 µg/mL (≈ 13.1 µM) | MIC [16]: 8 µg/mL (≈ 26.1 µM) | MIC [42]: 1 µg/mL | MIC [17]: 16 µg/mL (≈ 52.2 µM) | MIC [18]: 2 µg/mL (≈ 6.53 µM) | MIC [20]: 1 µg/mL (≈ 3.27 µM) | MIC [43]: 0.25 µg/mL | MST [22]: 3 days | MIC [23]: 8 µg/mL (≈ 26.1 µM) | MIC [24]: 4 µg/mL (≈ 13.1 µM) | MIC [26]: > 64 µg/mL | MIC [27]: 2 µg/mL (≈ 6.53 µM) | MIC [28]: 2 µg/mL (≈ 6.53 µM) | MIC [29]: 4 µg/mL (≈ 13.1 µM) | MIC [30]: 4 µg/mL (≈ 13.1 µM) | viability at 24 h, 256 ug/ml [31]: 95.3% | MIC [44]: 1 µg/mL | MIC [32]: 4 µg/mL (≈ 13.1 µM) | IC50 at 24 h [33]: > 64 µg/mL | viability at 24 h, 256 ug/ml [34]: 108% | MST [36]: 2.5 days | MIC [37]: 0.5 µg/mL (≈ 1.63 µM) | MIC [38]: 4 µg/mL (≈ 13.1 µM) | MIC [39]: 2 µg/mL (≈ 6.53 µM) | MIC [40]: 8 µg/mL (≈ 26.1 µM) | hemolysis at 1 h, 256 ug/ml [41]: 2.67%
